Key:
Assay type in all cases: cell-based
Streptococcus agalactiae = assay: Minimum Inhibitory Concentration (MIC) on agarised medium against Streptococcus agalactiae
Description: The assay was carried out on an M-Ha medium+blood at 5%. The medium was prepared at a concentration 33% higher with respect to the final one used in the test corresponding to the one indicated by the supplier. After sterilisation in autoclave, the medium was balanced at the temperature of 48° C. and added with horse blood at the concentration of 6.6% (33% higher than the final concentration of the assay). 15 ml aliquots of M-Ha medium+blood were transferred into 50 ml falcon test tubes maintained at 48° C., added with 5 ml of the dilutions of the substances to be assayed, mixed, poured into Petri dishes and left to solidify. Twenty-five bacterial inoculums, each with approximate volume of about 5 μl and containing about 10^5 ufc, were deposited on the surface of the M-Ha medium+blood of each plate. After incubation at 37° C. for 18 hours the minimum inhibitory concentration (MIC) defined as the minimum concentration of substance capable of inhibiting a bacterial growth noticeable to the naked eye at the area of deposition of the inoculums was read.
In the test with Streptococcus agalactiae the minimum inhibitory concentrations in the assay in liquid medium, regarding which only the bactericide minimum concentration values are indicated, could not be determined with sufficient reliability due to the turbidity of the solutions containing the substances. “Determination of the Minimum Inhibitory Concentration on Agarised Medium” was carried out to obtain the MIC values.

[1] = system: Lactobacillus crispatus NCIMB 4505; assay: MIC against Lactobacillus crispatus; conditions: substance alone
Description: (§1) The vaginal lactobacillus strains used are the NCIMB 4505 strain of Lactobacillus crispatus, the NCIMB 13279 strain of Lactobacillus jensenii and NCIMB 702820 strain of Lactobacillus gasseri. [table] The other assayed microbial strains were cultured in the liquid media and in the incubation conditions specified in table A, following the operating procedure described above. The assay was carried out in 96-well microtitre plates. 50 μl of substance solution at the “mother” concentration alongside 50 μl of liquid medium at double concentration were deposited in the first well of each of the 8 rows while 50 μl of liquid medium at normal concentration were deposited in the remaining 11 wells. Starting from the first well of each row, 50 μl volumes were transferred from each well to the subsequent one 10 times, thus obtaining a series of 11 dilutions after doubling. The 12th well of each row was kept substance-free as a function of positive control of the bacterial growth. Subsequently, 50 μl of diluted bacterial inoculum as specified previously were deposited in all wells of the plate, except for the 11th of each row. Only the liquid medium at single concentration but bacteria-free, was deposited in the 11th well, with the aim of providing negative control for each row. The described scheme was used for the assay with each of the assayed microbial strains. […]

[2] = system: Lactobacillus jensenii NCIMB 13279; assay: MIC against Lactobacillus jensenii; conditions: substance alone
Description: as §1

[3] = system: Lactobacillus jensenii NCIMB 13279; assay: MBC against Lactobacillus jensenii; conditions: substance alone
Description: (§2) The vaginal lactobacillus strains used are the NCIMB 4505 strain of Lactobacillus crispatus, the NCIMB 13279 strain of Lactobacillus jensenii and NCIMB 702820 strain of Lactobacillus gasseri. [table] The other assayed microbial strains were cultured in the liquid media and in the incubation conditions specified in table A, following the operating procedure described above. Immediately after determining the value of the MIC for each substance, a volume equivalent to 50 μl was taken from each well and streaked on the surface of plates containing the solid medium. The plates were subsequently incubated at the conditions indicated for each microbial strain. After incubation at 37° C. for 24 hours, the number of colonies grown on the medium surface was counted thus determining the number of bacteria that survived after 24 hours of contact with the substance at the concentration present in the well. The MBC value defined as the lowest concentration of each substance capable of reducing the bacterial load by 99.9% in the previously defined assay conditions was determined through comparison between the number of bacteria that survived in each well and that of the bacterial inoculum deposited initially.

[4] = system: Lactobacillus gasseri NCIMB 702820; assay: MIC against Lactobacillus gasseri; conditions: substance alone
Description: as §1

[5] = system: Lactobacillus gasseri NCIMB 702820; assay: MBC against Lactobacillus gasseri; conditions: substance alone
Description: as §2

Row | Substance | MIC (minimum inhibiting concentration) (Streptococcus agalactiae; strain 2, substance alone) [%] | MIC (minimum inhibiting concentration) (Streptococcus agalactiae; strain 5, substance alone) [%] | MIC (minimum inhibiting concentration) (Streptococcus agalactiae; strain 6, substance alone) [%] | MIC (minimum inhibiting concentration) (Streptococcus agalactiae; strain 7, substance alone) [%] | MIC (minimum inhibiting concentration) (Streptococcus agalactiae; strain 8, substance alone) [%] | MIC (minimum inhibiting concentration) (Streptococcus agalactiae; strain 9, substance alone) [%] | MIC (minimum inhibiting concentration) (Streptococcus agalactiae; strain 10, substance alone) [%] | MIC (minimum inhibiting concentration) (Streptococcus agalactiae; strain 11, substance alone) [%] | MIC (minimum inhibiting concentration) (Streptococcus agalactiae; strain 12, substance alone) [%] | MIC (minimum inhibiting concentration) (Streptococcus agalactiae; strain 13, substance alone) [%] | MIC (minimum inhibiting concentration) (Streptococcus agalactiae; strain 14, substance alone) [%] | MIC (minimum inhibiting concentration) (Streptococcus agalactiae; strain 15, substance alone) [%] | MIC (minimum inhibiting concentration) (Streptococcus agalactiae; strain 16, substance alone) [%] | MIC (minimum inhibiting concentration) (Streptococcus agalactiae; strain 17, substance alone) [%] | MIC (minimum inhibiting concentration) (Streptococcus agalactiae; strain 18, substance alone) [%] | MIC (minimum inhibiting concentration) (Streptococcus agalactiae; strain 19, substance alone) [%] | MIC (minimum inhibiting concentration) (Streptococcus agalactiae; strain 20, substance alone) [%] | MIC (minimum inhibiting concentration) (Streptococcus agalactiae; strain 21, substance alone) [%] | MIC (minimum inhibiting concentration) (Streptococcus agalactiae; strain 22, substance alone) [%] | MIC (minimum inhibiting concentration) (Streptococcus agalactiae; strain 23, substance alone) [%] | further results
1 | caprylyl/capryl glucoside/C8-C10 alkyl polyglucoside [Substance A1] | 0.093 | 0.093 | 0.048 | 0.093 | 0.19 | 0.093 | 0.19 | 0.093 | 0.093 | 0.093 | 0.093 | 0.048 | 0.093 | 0.048 | 0.19 | 0.093 | 0.048 | 0.048 | 0.093 | 0.093 | MIC (minimum inhibiting concentration) (Streptococcus agalactiae; strain 24, substance alone): 0.093%; MIC (minimum inhibiting concentration) (Streptococcus agalactiae; strain 25, substance alone): 0.048%; MIC (minimum inhibiting concentration) (Streptococcus agalactiae; strain 12386, substance alone): 0.093%; MIC (minimum inhibiting concentration) (Streptococcus agalactiae; strain 12403, substance alone): 0.093%; MIC (minimum inhibiting concentration) (Streptococcus agalactiae; strain 27956, substance alone): 0.093%; MIC [1]: 0.097%; MIC [2]: 0.193%; MBC [3]: 0.193%; MIC [4]: 0.097%; MBC [5]: 0.193%
2 | lauryl glucoside/C12-C16 alkyl polyglucoside [Substance A2] | 0.0097 | 0.019 | 0.0097 | 0.0097 | 0.019 | 0.0097 | 0.019 | 0.0097 | 0.0097 | 0.0097 | 0.0097 | 0.019 | 0.0097 | 0.0097 | 0.019 | 0.0097 | 0.0097 | 0.0097 | 0.0097 | 0.0097 | MIC (minimum inhibiting concentration) (Streptococcus agalactiae; strain 24, substance alone): 0.0097%; MIC (minimum inhibiting concentration) (Streptococcus agalactiae; strain 25, substance alone): 0.0097%; MIC (minimum inhibiting concentration) (Streptococcus agalactiae; strain 12386, substance alone): 0.0097%; MIC (minimum inhibiting concentration) (Streptococcus agalactiae; strain 12403, substance alone): 0.0097%; MIC (minimum inhibiting concentration) (Streptococcus agalactiae; strain 27956, substance alone): 0.019%; MIC [1]: 0.038%; MIC [2]: 0.077%; MBC [3]: 0.077%; MIC [4]: 0.077%; MBC [5]: 0.077%
